According to ChEMBL document CHEMBL1152319, “Bromopyrrole alkaloids from marine sponges of the genus Agelas” (2009):
Converted amounts (≈) assume the structure as drawn.

Columns and labels:
Assay type in all cases: functional
Aspergillus niger = experiment: Antifungal activity against Aspergillus niger
Micrococcus luteus = experiment: Antibacterial activity against Micrococcus luteus
Bacillus subtilis = experiment: Antibacterial activity against Bacillus subtilis
Staphylococcus aureus = experiment: Antibacterial activity against Staphylococcus aureus

Row | MIC (Aspergillus niger) [µg/mL] | MIC (Micrococcus luteus) [µg/mL] | MIC (Bacillus subtilis) [µg/mL] | MIC (Staphylococcus aureus) [µg/mL] | Structure (SMILES)
1 | 16.7 (≈ 39.6 µM) | – | – | – | O=C1NC(=O)/C(=C/[C@@H](O)CNC(=O)c2cc(Br)c(Br)[nH]2)N1 [MUKANADIN F]
2 | – | 33.3 (≈ 43.4 µM) | 33.3 (≈ 43.4 µM) | 33.3 (≈ 43.4 µM) | N=C1N[C@H]2N3C(=N)N[C@@H](O)[C@@]34[C@H]([C@H](CNC(=O)c3cc(Br)c[nH]3)[C@@H](CNC(=O)c3cc(Br)c(Br)[nH]3)[C@@H]4Cl)[C@@]2(O)N1 [NAGELAMIDE O]
